Laboratory results: ChEMBL document CHEMBL1156326, “Novel N-substituted benzimidazole CXCR4 antagonists as potential anti-HIV agents” (Bioorg Med Chem Lett, 2010)

How the values were obtained:
[1] = tested on: Human immunodeficiency virus 1; experiment: Antiviral activity against HIV1 3B infected in human HOS cells expressing human CXCR4/CCR5/CD4 and HIV-LTR-luciferase; type: functional, organism-based; conditions: Human immunodeficiency virus 1, 3B
[2] = Cytotoxicity against human HOS cells; type: cell-based
[3] = tested on: Human immunodeficiency virus 1; experiment: Antiviral activity against HIV1 3B infected in human HOS cells expressing human CXCR4/CCR5/CD4 and HIV-LTR-luciferase assessed as change in concentration at which 50 % efficacy is observed in presence of human serum albumin and alpha acid glycoprotein; type: functional
[4] = target: C-X-C chemokine receptor type 4 (Homo sapiens, UniProt P61073); experiment: Inhibition of human CXCR4
[5] = Half life in rat at 1 mg/kg, iv; type: ADME, organism-based; set-up: dose 1 mg/kg, route intravenous; conditions: in vivo
[6] = Clearance in rat at 1 mg/kg, iv; type: ADME, organism-based; set-up: dose 1 mg/kg, route intravenous; conditions: in vivo
[7] = Oral bioavailability in rat at 3 mg/kg; type: ADME, organism-based; conditions: in vivo
[8] = Half life in dog at 1 mg/kg, iv; type: ADME, organism-based, Canis lupus familiaris; set-up: dose 1 mg/kg, route intravenous; conditions: in vivo
[9] = Clearance in dog at 1 mg/kg, iv; type: ADME, organism-based, Canis lupus familiaris; set-up: dose 1 mg/kg, route intravenous; conditions: in vivo
[10] = Oral bioavailability in dog at 3 mg/kg; type: ADME, organism-based, Canis lupus familiaris; conditions: in vivo
[11] = target: Voltage-gated inwardly rectifying potassium channel KCNH2 (Homo sapiens, UniProt Q12809); experiment: Binding affinity to human ERG
Sequence of Voltage-gated inwardly rectifying potassium channel KCNH2 (Q12809 whole entry): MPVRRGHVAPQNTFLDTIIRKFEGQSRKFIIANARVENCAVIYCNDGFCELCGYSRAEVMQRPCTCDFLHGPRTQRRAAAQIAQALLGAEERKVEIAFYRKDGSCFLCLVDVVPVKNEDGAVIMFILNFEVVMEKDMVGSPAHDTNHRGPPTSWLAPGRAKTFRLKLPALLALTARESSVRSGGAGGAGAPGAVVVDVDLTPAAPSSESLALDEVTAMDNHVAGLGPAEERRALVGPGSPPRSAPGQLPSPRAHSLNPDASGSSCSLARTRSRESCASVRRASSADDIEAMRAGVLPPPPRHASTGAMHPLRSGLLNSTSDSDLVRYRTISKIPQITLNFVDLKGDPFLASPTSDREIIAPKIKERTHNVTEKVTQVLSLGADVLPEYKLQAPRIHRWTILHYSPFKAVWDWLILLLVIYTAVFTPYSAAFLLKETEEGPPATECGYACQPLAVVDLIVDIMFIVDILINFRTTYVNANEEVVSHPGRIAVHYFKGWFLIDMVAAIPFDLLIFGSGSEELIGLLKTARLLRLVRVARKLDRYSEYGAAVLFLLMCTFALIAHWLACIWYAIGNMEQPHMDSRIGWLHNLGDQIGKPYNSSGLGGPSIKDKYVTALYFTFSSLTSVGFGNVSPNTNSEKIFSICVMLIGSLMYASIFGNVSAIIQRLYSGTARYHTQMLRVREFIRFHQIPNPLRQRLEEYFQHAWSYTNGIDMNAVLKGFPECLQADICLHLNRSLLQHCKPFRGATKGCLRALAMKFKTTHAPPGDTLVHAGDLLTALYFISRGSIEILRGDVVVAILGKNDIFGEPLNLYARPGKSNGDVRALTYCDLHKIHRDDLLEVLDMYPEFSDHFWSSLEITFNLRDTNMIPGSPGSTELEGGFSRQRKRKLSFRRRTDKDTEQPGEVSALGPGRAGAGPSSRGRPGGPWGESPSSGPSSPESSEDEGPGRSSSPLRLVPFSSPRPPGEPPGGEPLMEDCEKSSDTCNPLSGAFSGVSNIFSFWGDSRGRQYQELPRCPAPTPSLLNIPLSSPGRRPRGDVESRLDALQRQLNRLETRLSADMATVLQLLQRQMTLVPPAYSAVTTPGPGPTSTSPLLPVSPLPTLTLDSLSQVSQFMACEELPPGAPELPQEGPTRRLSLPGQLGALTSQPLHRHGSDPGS

Sequence of C-X-C chemokine receptor type 4 (P61073 whole entry): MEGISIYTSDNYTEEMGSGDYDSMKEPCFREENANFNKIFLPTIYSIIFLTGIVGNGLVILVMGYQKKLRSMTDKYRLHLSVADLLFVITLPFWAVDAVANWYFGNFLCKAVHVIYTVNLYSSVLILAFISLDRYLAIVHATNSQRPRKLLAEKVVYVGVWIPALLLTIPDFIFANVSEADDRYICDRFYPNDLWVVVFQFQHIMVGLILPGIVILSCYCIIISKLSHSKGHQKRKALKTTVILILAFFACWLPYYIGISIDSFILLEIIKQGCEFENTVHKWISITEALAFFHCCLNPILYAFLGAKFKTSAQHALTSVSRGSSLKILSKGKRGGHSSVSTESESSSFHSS

IC50 [1]	Compound	CC50 [2]	fold change (FC) [3]	further results
51 nM	CN(Cc1nc2ccccc2n1CC1CCCNC1)C1CCCc2cccnc21 (stereo not drawn)	15000 nM	–	–
57 nM	CN1CCC(Cn2c(CN(C)C3CCCc4cccnc43)nc3ccccc32)C1 (stereo not drawn)	15000 nM	–	–
19 nM	CN1CCCC(Cn2c(CN(C)C3CCCc4cccnc43)nc3ccccc32)C1 (stereo not drawn)	3000 nM	–	–
15 nM	CC(C)CCN1CCC[C@H](Cn2c(CN(C)[C@H]3CCCc4cccnc43)nc3ccccc32)C1	2300 nM	5.1	–
210 nM	CN1CCC[C@H](Cn2c(CN(C)[C@@H]3CCCc4cccnc43)nc3ccccc32)C1	3600 nM	–	–
64 nM	CN(Cc1nc2ccccc2n1CCC1CCCCN1)C1CCCc2cccnc21 (stereo not drawn)	8300 nM	–	–
21 nM	CN1CCC[C@@H](Cn2c(CN(C)[C@H]3CCCc4cccnc43)nc3ccccc32)C1	3500 nM	–	–
8 nM	CN(Cc1nc2ccccc2n1C[C@H]1CCCNC1)[C@H]1CCCc2cccnc21	3500 nM	1.2	–
24 nM	CN(Cc1nc2ccccc2n1CC1CCNC1)C1CCCc2cccnc21 (stereo not drawn)	7700 nM	–	–
8.1 nM	CC(C)CN1CCC[C@H](Cn2c(CN(C)[C@H]3CCCc4cccnc43)nc3ccccc32)C1	> 2000 nM	6.2	–
12 nM	CN(Cc1nc2ccccc2n1C[C@H]1CCCN(CCO)C1)[C@H]1CCCc2cccnc21	2500 nM	9.1	–
6 nM	CN1CCC[C@H](Cn2c(CN(C)[C@H]3CCCc4cccnc43)nc3ccccc32)C1	3600 nM	10	–
84 nM	CN(Cc1nc2ccccc2n1CC1CNC1)C1CCCc2cccnc21 (stereo not drawn)	15000 nM	–	–
66 nM	CN1CC(Cn2c(CN(C)C3CCCc4cccnc43)nc3ccccc32)C1 (stereo not drawn)	14000 nM	–	–
95 nM	CN1CCC(n2c(CN(C)C3CCCc4cccnc43)nc3ccccc32)CC1 (stereo not drawn)	16000 nM	–	IC50 [4]: 76 nM
33 nM	CN1CCCCC1CCn1c(CN(C)C2CCCc3cccnc32)nc2ccccc21 (stereo not drawn)	4900 nM	–	–
33 nM	CN(Cc1nc2ccccc2n1C[C@H]1CCCN(Cc2cccnc2)C1)[C@H]1CCCc2cccnc21	2500 nM	8.7	–
2 nM	CC(C)N1CCC[C@H](Cn2c(CN(C)[C@H]3CCCc4cccnc43)nc3ccccc32)C1	2100 nM	2	half-life [5]: 5.8 h; clearance [6]: 8.5 mL/min/kg; bioavailability [7]: 11%; half-life [8]: 11 h; clearance [9]: 9.4 mL/min/kg; bioavailability [10]: 22%; Activity [11]: Active; IC50 [4]: 4.5 nM
–	CN(Cc1nc2ccccc2n1CCCN)C1CCCc2cccnc21 (stereo not drawn)	9600 nM	–	IC50 [4]: 47 nM
500 nM	CN1CCC[C@@H](Cn2c(CN(C)[C@@H]3CCCc4cccnc43)nc3ccccc32)C1	2800 nM	–	–
99 nM	CN(Cc1nc2ccccc2n1C1CCNCC1)C1CCCc2cccnc21 (stereo not drawn)	13000 nM	–	–
